Data reported in PMC3778450, “Agonists and antagonists induce different palonosetron dissociation rates in 5-HT3A and 5-HT3AB receptors^” (Neuropharmacology, 2013).
Read-outs that look alike come from different tables or passages of the source. Each block holds one compound with its values, some of them ahead of it.

Columns and labels:
[1] = target: T1, 5-HT3AB receptors (Homo sapiens, UniProt P46098); assay: [3H]granisetron competition binding, HEK293 membranes; conditions: displacement of [3H]granisetron
T1 construct: expressed in transfected cells; host or cells: HEK293
T1 sequence (P46098 24-478): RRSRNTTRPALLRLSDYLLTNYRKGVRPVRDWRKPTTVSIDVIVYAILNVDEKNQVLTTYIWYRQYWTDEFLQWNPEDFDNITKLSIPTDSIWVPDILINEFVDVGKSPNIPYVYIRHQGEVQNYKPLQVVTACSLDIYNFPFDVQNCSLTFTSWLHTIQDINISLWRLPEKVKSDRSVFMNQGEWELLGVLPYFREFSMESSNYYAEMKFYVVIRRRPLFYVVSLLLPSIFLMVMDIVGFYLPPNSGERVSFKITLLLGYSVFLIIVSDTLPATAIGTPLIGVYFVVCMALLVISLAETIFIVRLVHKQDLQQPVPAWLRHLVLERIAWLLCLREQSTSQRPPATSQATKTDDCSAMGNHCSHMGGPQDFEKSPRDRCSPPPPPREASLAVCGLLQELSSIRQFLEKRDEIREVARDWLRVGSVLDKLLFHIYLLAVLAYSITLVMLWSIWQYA
T1 sequence (O95264 22-441 partner): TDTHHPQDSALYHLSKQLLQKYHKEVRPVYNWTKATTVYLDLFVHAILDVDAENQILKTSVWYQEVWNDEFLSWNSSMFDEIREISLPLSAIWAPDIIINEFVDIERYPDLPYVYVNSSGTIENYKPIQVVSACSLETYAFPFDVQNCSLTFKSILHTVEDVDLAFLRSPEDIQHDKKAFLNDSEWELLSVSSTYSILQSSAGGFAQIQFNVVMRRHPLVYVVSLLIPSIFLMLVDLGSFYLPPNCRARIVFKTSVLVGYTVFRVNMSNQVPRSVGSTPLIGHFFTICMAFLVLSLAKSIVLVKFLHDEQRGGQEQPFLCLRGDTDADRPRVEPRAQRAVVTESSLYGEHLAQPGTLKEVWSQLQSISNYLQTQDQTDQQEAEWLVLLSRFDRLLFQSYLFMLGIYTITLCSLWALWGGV
Protocol: (§1) Human embryonic kidney (HEK) 293 cells were maintained on 90 mm tissue culture plates at 37 °C and 7% CO2 in a humidified atmosphere. They were cultured in DMEM:F12 (Dulbecco's Modified Eagle Medium/Nutrient Mix F12 (1:1)) with GlutaMAX™ I media containing 10% foetal calf serum and passaged when confluent. For radioligand binding studies cells in 90 mm dishes were transfected using PEI and incubated for 3–4 days before use. For functional studies cells were plated on 96 well plates, transfected using the Neon transfection system (Invitrogen) and incubated 1–2 days before assay. Mutagenesis reactions were performed using QuikChange (Agilent Technologies Inc., CA, USA) using human 5-HT3A or 5-HT3B receptor subunit cDNA (accession numbers: P46098 or O95264) in pcDNA3.1 (Invitrogen, Paisley, UK). Subunit numberings have been altered to the aligning residues in the mouse 5-HT3A receptor.
(§2) Briefly, transfected HEK293 cells were washed twice with phosphate buffered saline (PBS) at room temperature and scraped into 1 ml of ice-cold HEPES buffer (10 mM, pH 7.4) containing the following proteinase inhibitors (PI): 1 mM EDTA, 50 μg ml^−1 soybean trypsin inhibitor, 50 μg/ml bacitracin and 0.1 mM phenylmethylsulphonyl fluoride. […] Non-specific binding was determined using 10 μM quipazine. […] All samples were terminated by vacuum filtration using a Brandel cell harvester onto GF/B filters pre-soaked in 0.3% polyethyleneimine. Radioactivity was determined by scintillation counting using a Beckman LS6000SC (Fullerton, California, USA).
(§3) Data were analysed by iterative curve fitting using Prism software (GraphPad, San Diego, California, USA). Determination of Ki values was performed using the Cheng–Prusoff equation. Values are presented as mean ± SEM, n = 3–6.

[2] = target: T2, 5-HT3A receptors (Homo sapiens, UniProt P46098); assay: as above; conditions: displacement of [3H]granisetron
T2 construct: expressed in transfected cells; host or cells: HEK293
T2 sequence (P46098 24-478): T1 sequence (P46098 24-478)
Protocol: as §1, §2, §3

[3] = target: T1, 5-HT3AB receptors; assay: Radioligand association and dissociation kinetics, HEK293 membranes; assay type: binding; parameters: dissociation k−1 (mean ± S.E.M): unit not given here
Protocol: as §1, §2, §3

[4] = test system: 5-HT3 receptors; parameters: method as in Wong et al., 1995; conditions: ref Wong et al., 1995, cited from earlier work
[5] = test system: 5-HT3 receptors, NG108-15 cells; parameters: method as in Wong et al., 1995; conditions: ref Wong et al., 1995; cited from earlier work
[6] = target: T2, 5-HT3A receptors; assay: Radioligand association and dissociation kinetics, HEK293 membranes; assay type: binding; parameters: dissociation k−1 (mean ± S.E.M): unit: h−1
Protocol: as §1, §2, §3

[7] = target: T3, 5-HT3 receptors expressed in oocytes (Homo sapiens, UniProt P46098); assay: Recovery from palonosetron inhibition after washout in oocytes; assay type: cell-based; conditions: after a 10 min wash; data not shown
T3 sequence (P46098 24-478): T1 sequence (P46098 24-478)

[8] = test system: 5-HT3 receptors, transfected HEK293 cells; parameters: method as in Rojas et al., 2008; conditions: ref Rojas et al., 2008; cited from earlier work
[9] = target: 5-HT3 receptors, human hippocampus; parameters: method as in Wong et al., 1995; conditions: ref Wong et al., 1995; cited from earlier work
[10] = target: T1, 5-HT3AB receptors; assay: Flexstation membrane potential dye assay, inhibition of 5-HT-induced responses; assay type: cell-based; conditions: for relative Fmax: relative to 0 palonosetron (100%), typical example; for IC50: palonosetron preincubated 45 min before 5-HT, HEK293 cells
Protocol: as §1
(§4) Fluorescence was measured in a FLEXstation™ (Molecular Devices Ltd., Wokingham, UK) every 2 s for 200 s using the acquisition software SOFTmax® PRO v4.3.
as §3

[11] = target: T2, 5-HT3A receptors; assay: as above; assay type: cell-based; conditions: for relative Fmax: relative to 0 palonosetron (100%), typical example; for IC50: HEK293 cells
Protocol: as §1, §4, §3

[12] = test system: 5-HT3 receptor-expressing HEK293 cells; conditions: cited from earlier work; for [3H]palonosetron remaining: ref Rojas et al., 2010
[13] = target: T1, 5-HT3AB receptors; assay: [3H]palonosetron saturation binding, HEK293 membranes; conditions: 24 h, 4 °C
Protocol: as §1, with “Mutagenesis reactions were performed using QuikChange (Agilent Technologies Inc., CA, USA) using human 5-HT3A or 5-HT3B receptor subunit cDNA (accession numbers: P46098 or O95264) in pcDNA3.1 (Invitrogen, Paisley, UK). Subunit numberings have been altered to the aligning residues in the mouse 5-HT3A receptor.” left out
(§5) Briefly, transfected HEK293 cells were washed twice with phosphate buffered saline (PBS) at room temperature and scraped into 1 ml of ice-cold HEPES buffer (10 mM, pH 7.4) containing the following proteinase inhibitors (PI): 1 mM EDTA, 50 μg ml^−1 soybean trypsin inhibitor, 50 μg/ml bacitracin and 0.1 mM phenylmethylsulphonyl fluoride. […] Non-specific binding was determined using 10 μM quipazine. […] Radioactivity was determined by scintillation counting using a Beckman LS6000SC (Fullerton, California, USA).
(§6) Data were analysed by iterative curve fitting using Prism software (GraphPad, San Diego, California, USA). […]

[14] = target: T2, 5-HT3A receptors; assay: as above; conditions: 24 h, 4 °C
Protocol: as §1, with “Mutagenesis reactions were performed using QuikChange (Agilent Technologies Inc., CA, USA) using human 5-HT3A or 5-HT3B receptor subunit cDNA (accession numbers: P46098 or O95264) in pcDNA3.1 (Invitrogen, Paisley, UK). Subunit numberings have been altered to the aligning residues in the mouse 5-HT3A receptor.” left out
as §5, §6

[15] = agonist-induced dissociation (5-HT or quipazine)
[16] = displacing ligand MDL72222 (1 μM)
[17] = displacing ligand unlabelled palonosetron (100 nM)
[18] = displacing ligand 5-HT (100 μM)
[19] = displacing ligand quipazine (10 μM)

IC50 ([1]; 4 °C): 0.71 nM | Ki ([1]; Cheng–Prusoff): 0.35 nM | IC50 ([2]; 4 °C): 0.6 nM | Ki ([2]; Cheng–Prusoff): 0.3 nM | dissociation t1/2 [3, 15]: > 10 h | dissociation t1/2 [3, 16]: 1.7 h | dissociation t1/2 [3, 17]: 1.0 h | dissociation t1/2 [6, 15]: > 10 h | dissociation t1/2 [6, 16]: 2.3 h | dissociation t1/2 [6, 17]: 1.5 h | original response recovered after washout [7]: < 10% | relative Fmax ([10]; 0.1 nM palonosetron): 62% | relative Fmax ([10]; 0.3 nM palonosetron): 28% | IC50 ([10]; read-out: IC50): 0.18 nM | IC50 ([10]; read-out: pIC50 (converted)): 0.186 nM | relative Fmax ([11]; 0.1 nM palonosetron): 70% | relative Fmax ([11]; 0.3 nM palonosetron): 40% | IC50 ([11]; palonosetron co-applied with 5-HT, read-out: IC50): 83 nM | IC50 ([11]; palonosetron preincubated 45 min before 5-HT, read-out: IC50): 0.24 nM | IC50 ([11]; palonosetron preincubated 45 min before 5-HT, read-out: pIC50 (converted)): 0.245 nM
Compound: O=C1c2cccc3c2[C@H](CCC3)CN1[C@@H]1CN2CCC1CC2 [Palonosetron, palonosetron]
dissociation t½ ([4]; previous studies): 8 to 10 min | Kd [5]: 0.05 nM | Kd [8]: 0.2 nM | Kd [9]: 0.15 nM

association k [3]: 0.35 ± 0.06 | association t1/2 [3]: 2.0 min | dissociation k−1 (mean ± S.E.M) [3, 18]: 0.057 ± 0.008 | dissociation t1/2 [3, 18]: 12.1 h | dissociation k−1 (mean ± S.E.M) [3, 16]: 0.41 ± 0.04 | dissociation k−1 (mean ± S.E.M) [3, 19]: 0.068 ± 0.003 | dissociation t1/2 [3, 19]: 10.1 h | dissociation k−1 (mean ± S.E.M) [3, 17]: 0.68 ± 0.08 | association k [6]: 0.16 ± 0.03 | association t1/2 [6]: 4.1 min | [3H]palonosetron remaining ([6]; after 2 h dissociation in the presence of MDL72222): 67 ± 7% | dissociation k−1 (mean ± S.E.M) [6, 18]: 0.032 ± 0.005 | dissociation t1/2 [6, 18]: 21.9 h | dissociation k−1 (mean ± S.E.M) [6, 16]: 0.29 ± 0.03 | dissociation k−1 (mean ± S.E.M) [6, 19]: 0.056 ± 0.003 | dissociation t1/2 [6, 19]: 12.5 h | dissociation k−1 (mean ± S.E.M) [6, 17]: 0.44 ± 0.05 | dissociation t1/2 [6, 17]: 1.5 h | Kd [13]: 0.15 nM | Kd [14]: 0.34 nM
Compound: O=C1c2cccc3c2[C@H](CCC3)CN1[C@@H]1CN2CCC1CC2 [[^3H]palonosetron]
time to complete association ([4]; previously reported): under 10 min | [3H]palonosetron remaining associated ([12]; HEK293 cells after a 2.5 h wash, ref Rojas et al. (2008)): 53 ± 11% | [3H]palonosetron remaining ([12]; cell-free membrane preparation after a 60 min wash): 2% | [3H]palonosetron remaining ([12]; cells after a 60 min wash): 65%
